{"source": "patent US11209440B2", "about": "“T cell balance gene expression, compositions of matters and methods of use thereof” (THE BROAD INSTITUTE, INC., priority 2014, dated 2021)", "molecules": {"B1": {"name": "activated protein C: the ligand of PROCR (protein, UniProt P04070 200-461, looked up)", "Vitamin K-dependent protein C …": "DTEDQEDQVDPRLIDGKMTRRGDSPWQVVLLDSKKKLACGAVLIHPSWVLTAAHCMDESKKLLVRLGEYDLRRWEKWELDLDIKEVFVHPNYSKSTTDNDIALLHLAQPATLSQTIVPICLPDSGLAERELNQAGQETLVTGWGYHSSREKEAKRNRTFVLNFIKIPVVPHNECSEVMSNMVSENMLCAGILGDRQDACEGDSGGPMVASFHGTWFLVGLVSWGEGCGLLHNYGVYTKVSRYLDWIHGHIRDKEAPQKSWAP", "modifications": "Vitamin K-dependent protein C heavy chain activated two-chain form", "notes": "the ligand of PROCR"}}, "key": {"Rorγt": {"target": "T1, Rorγt (Mus musculus, UniProt P51450)", "T1 sequence (P51450 1-495 isoform P51450-2)": "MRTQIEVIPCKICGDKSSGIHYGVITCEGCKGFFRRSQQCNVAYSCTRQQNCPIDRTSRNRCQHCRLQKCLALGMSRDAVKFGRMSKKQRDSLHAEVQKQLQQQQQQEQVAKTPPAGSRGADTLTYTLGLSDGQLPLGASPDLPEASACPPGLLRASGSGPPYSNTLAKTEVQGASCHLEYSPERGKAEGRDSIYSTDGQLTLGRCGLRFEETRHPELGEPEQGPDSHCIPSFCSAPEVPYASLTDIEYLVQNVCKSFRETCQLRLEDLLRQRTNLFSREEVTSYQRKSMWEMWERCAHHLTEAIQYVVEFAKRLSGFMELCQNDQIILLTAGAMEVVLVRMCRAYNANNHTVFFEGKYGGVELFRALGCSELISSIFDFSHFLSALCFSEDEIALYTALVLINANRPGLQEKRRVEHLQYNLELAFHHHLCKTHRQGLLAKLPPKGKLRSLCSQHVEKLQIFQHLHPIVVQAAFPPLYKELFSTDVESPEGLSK", "experiment": "Dual luciferase reporter assay in EL4 cells stably transfected with Rorγt vector", "format": "cell-based", "set-up": "expressed in transfected cells; host or cells: EL4 cells, stably transfected", "details": "EL4 cells with Rorγt and CD5L vector; 5, 0.5, 0.05 μM titration", "method": "Lipidome analysis of Th17 cells. (A) WT and CD5L^−/− naïve T cells were differentiated as in FIG. 46B in the presence of cytokines as indicated. Cells and supernatant were harvested at 96 hours and subjected to MS/LC. Three independent mouse experiments were performed. […] (B) Expression of representative metabolites including a cholesterol ester and a PUFA-containing TAG species. FIG. 48 C, D, E, F-J show as follows: (C) Metabolomic analysis of independent mouse experiments where T cells were differentiated under various cytokine conditions as indicated and harvested at 48 h and 96 h. (D,E) Rorγt ChIP from Th17 cells differentiated as described in A. under various conditions as indicated. F-K. Dual luciferase reporter assay was performed in EL4 cells stably transfected with a control vector or Rorγt vector. (F, G) CD5L retroviral vector was cotransfected in F and G at 0, 25, 50 and 100 ng/well. […] All ChIP and luciferase assay are representative of at least 3 independent experiments."}, "Th17 cells [1]": {"test_system": "Th17 cells", "experiment": "FACS of IL-17 and IL-23R.GFP in Th17 cells treated with free fatty acids", "format": "cell-based, mouse", "details": "10 uM arachidonic acid or 20 uM palmitic acid, 48 h, FACS", "method": "(§1) (A) Naïve T cells were sorted from either WT or IL-23RGFP reporter mice, activated with plate-bound anti-CD3/anti-CD28 and differentiated with TGFβ1+IL-6 for 48 hours. […] (B) Cells from WT and Rorc^−/− mice were sorted, differentiated and treated with FFA as in A. Cells were harvested for RNA purification and qPCR. (C) Naïve WT and CD5L^−/− T cells were differentiated as in A. Cells were then lifted, washed and replated in fresh media with no addition of cytokines and in the presence of control or 5 uM of arachidonic acid (PUFA). Cytokine profile of T cells were measured after PMA/ionomycin restimulation. […] Another 48 hours later, cells were harvested for nanostring analysis (D) or qPCR (E)."}, "Th17 cells [2]": {"test_system": "Th17 cells", "experiment": "qPCR and Nanostring signature analysis of Th17 cells treated with free fatty acids", "format": "cell-based, mouse", "method": "as §1\nNext, the contribution of lipid saturation to Th17 cell pathogenicity was studied."}, "PROCR [3]": {"target": "T2, PROCR (Mus musculus, UniProt Q64695)", "T2 construct": "endogenous in cells; host or cells: primary naïve CD4+ T cells polarised to Th17 (TGF-β1 + IL-6)", "T2 sequence (Q64695 18-242)": "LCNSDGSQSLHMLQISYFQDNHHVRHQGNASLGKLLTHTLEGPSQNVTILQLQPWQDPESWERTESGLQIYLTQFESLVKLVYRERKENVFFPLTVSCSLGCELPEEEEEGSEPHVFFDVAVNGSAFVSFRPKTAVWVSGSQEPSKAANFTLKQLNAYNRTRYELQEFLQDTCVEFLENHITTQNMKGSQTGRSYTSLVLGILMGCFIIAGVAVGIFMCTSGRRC", "experiment": "qRT-PCR of pathogenic/non-pathogenic signature genes in Th17 cells differentiated in the presence of activated protein C", "format": "cell-based", "description": "FIG. 23A depicts quantitative RT-PCR analysis of mRNA expression of several pathogenic signature genes in Th17 cells differentiated with TGFβ1 and IL-6 in the presence of activated protein C (aPC) for 3 days in vitro. FIG. 23B depicts quantitative RT-PCR analysis of mRNA expression of several pathogenic signature genes in naïve CD4^+ T cells polarized under Th17 conditions, transduced with either GFP control retrovirus (Control RV) or PROCR-expressing retrovirus (PROCR RV) for 3 days. FIG. 23C depicts quantitative RT-PCR analysis of mRNA expression of several pathogenic signature genes in Th17 cells from EPCR δ/δ mice and control mice differentiated with TGFβ1 and IL-6 for 3 days in vitro.\nFIGS. 32A-32D are a series of graphs depicting how PROCR and PD-1 expression affects Th17 pathogenicity. FIG. 32A depicts signature genes of pathogenic and non-pathogenic Th17 cells. Naïve CD4+ T cells were differentiated into non-pathogenic (TGFβ1+IL-6) or pathogenic (TGFβ3+IL-6 or IL-β1+IL-6) Th17 cells and PROCR expression was determined by quantitative PCR. FIG. 32B depicts how naïve WT or PROCRd/d CD4+ T cells were stimulated under Th17 polarizing conditions (TGFβ1+IL-6) in the presence or absence of aPC. Quantitative expression of three pathogenic signature genes was determined on day 3. […] Mice were monitored for EAE. […] Mice were monitored for EAE."}, "PROCR [4]": {"target": "T2, PROCR", "experiment": "Intracellular IFN-γ/IL-17 staining and IL-17 ELISA of Th17 cells differentiated with activated protein C", "format": "cell-based", "details": "aPC 300 nM; flow cytometry day 3, ELISA day 3 and 5", "method": "FIG. 20A depicts how naïve CD4+ T cells were differentiated into Th17 cells by anti-CD3/anti-CD28 stimulation in the presence of activated protein C (aPC, 300 nM), the ligand of PROCR. On day 3, cells were stimulated with PMA and Ionomycin for 4 hr, stained intracellularly for IFN-γ and IL-17 and analyzed by flow cytometry. FIG. 20B depicts IL-17 production from Th17 cells (TGF-β+IL-6) differentiated with or without activated protein C (aPC and Ctl, respectively) was assessed by ELISA on Day 3 and 5. FIG. 20C depicts how naïve CD4+ T cells were polarized under Th17 conditions (TGF-β+IL-6), transduced with either GFP control retrovirus (Ctl RV) or PROCR-expressing retrovirus (PROCR RV). Intracellular expression of IFN-γ and IL-17 in GFP+ cells were assessed by flow cytometry. FIG. 20D depicts how naïve CD4+ T cells from EPCR δ/δ mice and control mice were polarized under Th17 conditions with TGF-β1 and IL-6. Intracellular expression of IFN-γ and IL-17 were assessed by flow cytometry."}, "EAE": {"test_system": "EAE", "experiment": "EAE (experimental autoimmune encephalomyelitis) clinical scoring", "format": "in vivo, mouse", "details": "schematic of PROCR regulation (FIG. 26D)", "description": "FIGS. 26A-26D are a series of graphs and illustrations depicting that PROCR deficiency exacerbates EAE severity. FIG. 26A depicts frequency of CD4+ T cells expressing IL-17 and PROCR isolated from EAE mice 21d after immunization with MOG35-55. FIG. 26B depicts how EAE was induced by adoptive transfer of MOG35-55-specific 2D2 cells transduced with a control retrovirus (Ctl_GFP) or a PROCR-expression retrovirus (PROCR_RV) and differentiated into Th17 cells. Mean clinical scores and summaries for each group are shown. Results are representative of one of two experiments. FIG. 26C depicts how Rag1−/− mice were reconstituted with either PROCR-deficient (EPCR δ/δ→Rag1−/−) or WT T cells (WT→Rag1−/−) and immunized with MOG35-55 to induce EAE. The mean clinical score of each group is shown. Results are representative of one of two experiments. FIG. 26D depicts a schematic representation of PROCR regulation. Rorγt, IRF4, and STAT3 induce PROCR expression.\nCyTOF and flow cytometry: Active induction of EAE and disease analysis: For active induction of EAE, mice were immunized by subcutaneous injection of 100 μg MOG (35-55) ([…]) (SEQ ID NO: 1395) in CFA, then received 200 ng pertussis toxin intraperitoneally (List Biological Laboratory) on days 0 and 2. […]"}}, "note": "Entries after “also recorded” stand apart in the source; their conditions may differ.", "data": [{"molecule": "CC(CO)CCC[C@@H](C)[C@H]1CC[C@H]2[C@@H]3C(O)C=C4C[C@@H](O)CC[C@]4(C)[C@H]3CC[C@]12C", "note": "(stereo partly shown) [7, 27 dihydroxycholesterol, 7, 27-dihydroxycholesterol]", "values": [{"measurement": "Il17 reporter transcription under CD5L-driven suppression", "setting": "Rorγt", "value": "rescued the CD5L-driven suppression"}]}, {"molecule": "CCCCCCCCCCCCCCCC(=O)O", "note": "[SFA, palmitic acid]", "values": [{"measurement": "percentage of IL-23R.GFP+ CD4 T cells", "setting": "Th17 cells [1]; IL-23RGFP reporter Th17 (TGFβ1+IL-6) expanded with IL-23", "value": "increased the expression of both IL-17 and IL-23R expression, but this effect was not significant"}, {"measurement": "percentage of IL-17+ CD4 T cells", "setting": "Th17 cells [1]; WT Th17 (TGFβ1+IL-6) expanded with IL-23", "value": "increased the expression of both IL-17 and IL-23R expression, but this effect was not significant"}, {"measurement": "316 gene signature of Th17 cell differentiation and function", "setting": "Th17 cells [2]; WT Th17 cells (TGFβ1+IL-6), 25 uM palmitic acid, Nanostring nCounter", "value": "more similar to CD5L^−/− Th17 cells"}, {"measurement": "Il22 expression", "setting": "Th17 cells [2]; qPCR", "value": "increased"}, {"measurement": "expression of key pathogenicity signature genes Il10, Il23r, Ccl5, Csf2 and Lag3", "setting": "Th17 cells [2]; qPCR", "value": "reciprocally regulated"}]}, {"molecule": "B1", "values": [{"measurement": "mRNA expression of pathogenic signature genes in Th17 cells", "setting": "PROCR [3]; Th17 cells differentiated with TGFβ1 and IL-6 in the presence of aPC for 3 days, quantitative RT-PCR", "value": "impairs some pathogenic signature genes; also recorded: downregulation of the pathogenic signature genes IL-3, CXCL3, CCL4 and Pdp; also recorded: decreased the expression of some of the genes"}, {"measurement": "expression of non-pathogenic signature genes in Th17 cells", "setting": "PROCR [3]; Th17 polarizing conditions (TGFβ1+IL-6) with aPC, day 3", "value": "induces some non-pathogenic signature genes"}, {"measurement": "cytokine production (IFN-γ, IL-17) from Th17 cells", "setting": "PROCR [4]", "value": "not essential for cytokine production"}, {"measurement": "pathogenicity in EAE", "setting": "EAE", "value": "reduced pathogenicity"}]}]}
